ChEMBL document CHEMBL1137047, “Induction of G2/M cell cycle arrest and apoptosis by a benz[f]indole-4,9-dione analog in cultured human lung (A549) cancer cells” (Bioorg Med Chem Lett, 2004)

How the values were obtained:
Type in all cases: functional, cell-based
Conditions in all cases: Homo sapiens
A549 = test: Inhibitory activity against growth of cultured A-549 cell line
Col2 = test: inhibitory activity against growth of cultured Col2 cell line
SNU-638 = test: inhibitory activity against growth of cultured SNU-638 cell line

CCOC(=O)c1c2c(n(C)c1N)C(=O)c1ccccc1C2=O
IC50 (A549): 630 nM
IC50 (Col2): 340 nM
IC50 (SNU-638): 1680 nM
